In patent publication US20260041679A1, “METHOD OF TREATING HYPERTENSION WITH THE ALDOSTERONE SYNTHASE INHIBITOR BAXDROSTAT” (CINCOR PHARMA, INC., priority 2022, published 2026):

Tested on: patients with uHTN
Experiment: Study 124 Part 1: seated SBP in patients with uncontrolled hypertension (Example 9)
Format: in vivo, human
Design: key to Model-Based Least-Squares Mean Change from Baseline (SBP) / LSMEANS change from baseline (SBP) / Model-Based Least-Square Mean Change from Baseline (SBP): LS mean change from baseline in seated SBP, mmHg
Procedure: Study 124 is a double-blind, placebo-controlled, dose range finding, multicenter study conducted in patients with uHTN receiving background antihypertensive agent(s) that are either an ACEI or an ARB, an ACEI/ARB plus a thiazide diuretic, or an ACEI/ARB plus a calcium channel blocker. The study consists of two parts: Part 1 consists of an 8-week treatment period in which the patients are to be assigned to one of 4 dose groups in equal ratio testing 0.5 mg, 1 mg, and 2 mg baxdrostat effects compared to a placebo. Patients are to administer double-blind baxdrostat tablets once per day while they continue taking the background antihypertensive medications. After 8 weeks of double-blind treatment, patients were to enter part 2 of the study unless the patient was assigned to the 2 mg group and the SBP remains ≥130 mmHg. In part 2 of the study, all patients are to cease dosing with background antihypertensive medication and take only baxdrostat 2 mg dose as a monotherapy for 4 weeks.
Key inclusion criteria include that patients are on a stable regimen of anti-hypertensive agents for at least 8 weeks; and have a seated BP≥140 mmHg. Key exclusion criteria include a seated SBP≥180 mmHg and estimated glomerular filtration rate (eGFR)<30 mL/min/1.73 m^2.
In this table, CI=confidence interval, DBP=diastolic blood pressure, LS=least squares, SBP=systolic blood pressure, SE=standard error. The LS means, CIs, and p-values are from an MMRM model with change from baseline as the dependent variable with randomized treatment, visit, and treatment-by-visit interaction as fixed categorical effects; along with covariates of the baseline value, race (African American versus non-African American), and the type of background antihypertensive regimen. The restricted maximum likelihood estimation (REML) approach will be used with an unstructured covariance matrix and the Kenward-Roger approximation for degrees of freedom.

[1] = 2 mg (N = 9), mITT, Female Non-Hispanic Female Patients
[2] = 2 mg (N = 13), mITT, Non-Hispanic Male Patients
[3] = 2 mg (N = 16), mITT Population for Hispanic Compliant Patients
[4] = 2 mg (N = 16), mITT, Hispanic Male Patients
[5] = 2 mg (N = 19), mITT, Female Hispanic/Latino Patients
[6] = Female Hispanic/Latino, mITT, 0.5 mg, Week 6
[7] = Female Hispanic/Latino, mITT, 0.5 mg, Week 8
[8] = Hispanic or Latino, ITT, 0.5 mg, Week 6
[9] = Hispanic or Latino, ITT, 0.5 mg, Week 8
[10] = Hispanic or Latino, ITT, 1 mg, Week 6
[11] = Hispanic or Latino, ITT, 1 mg, Week 8
[12] = Hispanic or Latino, ITT, 2 mg, Week 6
[13] = Hispanic or Latino, ITT, 2 mg, Week 8
[14] = Placebo (N = 8), mITT Population for Compliance for Black Patients

What does the source list for `CCC(=O)N[C@@H]1CCCc2c(-c3ccc4c(c3)CCC(=O)N4C)cncc21` [baxdrostat, (R)—N-(4-(1-methyl-2-oxo-1,2,3,4-tetrahydroquinolin-6-yl)-5,6,7,8-tetrahydroisoquinolin-8-yl) propionamide]?
LS Mean Change from Baseline (SE) in SBP (1 mg, Wk 6): −13.5 (1.88) mm Hg; SBP Change from Baseline to Week 8, Mean (2 mg): −19.3 mmHg; SBP Change from Baseline to Week 8, Median (2 mg): −18.0 mmHg; SBP at Week 8, Median (2 mg): 125.0 mmHg; efficacy in adherent Hispanic/Latino patients (2 mg): effective in adherent Hispanic/Latino, but efficacy response was substantially lower; efficacy in the Black/African American subgroup (2 mg): effective; Model-Based Least-Squares Mean Change from Baseline (SBP) (2 mg (N = 9), Week 2, mITT, Female Non-Hispanic Female Patients): −15.6; Model-Based Least-Squares Mean Change from Baseline (SBP) (2 mg (N = 9), Week 4, mITT, Female Non-Hispanic Female Patients): −23.8; Model-Based Least-Squares Mean Change from Baseline (SBP) (2 mg (N = 9), Week 6, mITT, Female Non-Hispanic Female Patients): −26.1; Model-Based Least-Squares Mean Change from Baseline (SBP) (2 mg (N = 9), Week 8, mITT, Female Non-Hispanic Female Patients): −32.8; Comp w/ Placebo at Week 6, Diff (95% CI) [1]: −15.8 (−29.06, −2.47); Comp w/ Placebo at Week 8, Diff (95% CI) [1]: −19.8 (−29.87, −9.73); Model-Based Least-Squares Mean Change from Baseline (SBP) (2 mg (N = 13), Week 2, mITT, Non-Hispanic Male Patients): −16.2; Model-Based Least-Squares Mean Change from Baseline (SBP) (2 mg (N = 13), Week 4, mITT, Non-Hispanic Male Patients): −17.4; Model-Based Least-Squares Mean Change from Baseline (SBP) (2 mg (N = 13), Week 6, mITT, Non-Hispanic Male Patients): −21.5; Model-Based Least-Squares Mean Change from Baseline (SBP) (2 mg (N = 13), Week 8, mITT, Non-Hispanic Male Patients): −22.3; Comp w/ Placebo at Week 6, Diff (95% CI) [2]: −11.6 (−22.42, −0.83); Comp w/ Placebo at Week 8, Diff (95% CI) [2]: −7.4 (−18.32, 3.53); LSMEANS change from baseline (SBP) (2 mg (N = 16), Week 2, mITT Population for Hispanic Compliant Patients): −4.6; Model-Based Least-Squares Mean Change from Baseline (SBP) (2 mg (N = 16), Week 2, mITT, Hispanic Male Patients): −5.1; LSMEANS change from baseline (SBP) (2 mg (N = 16), Week 4, mITT Population for Hispanic Compliant Patients): −13.9; Model-Based Least-Squares Mean Change from Baseline (SBP) (2 mg (N = 16), Week 4, mITT, Hispanic Male Patients): −14.6; LSMEANS change from baseline (SBP) (2 mg (N = 16), Week 6, mITT Population for Hispanic Compliant Patients): −15.4; Model-Based Least-Squares Mean Change from Baseline (SBP) (2 mg (N = 16), Week 6, mITT, Hispanic Male Patients): −17.5; LSMEANS change from baseline (SBP) (2 mg (N = 16), Week 8, mITT Population for Hispanic Compliant Patients): −22.8; Model-Based Least-Squares Mean Change from Baseline (SBP) (2 mg (N = 16), Week 8, mITT, Hispanic Male Patients): −21.9; Comp w Placebo at Week 6, Diff (95% CI) [3]: −6.0 (−13.91, 2.00); Comp w Placebo at Week 8, Diff (95% CI) [3]: −6.6 (−13.07, −0.13); Comp w/ Placebo at Week 6, Diff (95% CI) [4]: −6.2 (−14.14, 1.67); Comp w/ Placebo at Week 8, Diff (95% CI) [4]: −3.2 (−9.28, 2.87); Model-Based Least-Squares Mean Change from Baseline (SBP) (2 mg (N = 19), Week 2, mITT, Female Hispanic/Latino Patients): −6.0; Model-Based Least-Squares Mean Change from Baseline (SBP) (2 mg (N = 19), Week 4, mITT, Female Hispanic/Latino Patients): −7.1; Model-Based Least-Squares Mean Change from Baseline (SBP) (2 mg (N = 19), Week 6, mITT, Female Hispanic/Latino Patients): −8.0; Model-Based Least-Squares Mean Change from Baseline (SBP) (2 mg (N = 19), Week 8, mITT, Female Hispanic/Latino Patients): −12.6; Comp w/ Placebo at Week 6, Diff (95% CI) [5]: −1.5 (−13.53, 10.44); Comp w/ Placebo at Week 8, Diff (95% CI) [5]: 6.5 (−4.02, 16.98); SBP at Week 8, Mean (2 mg QD, mITT): 126.6 mmHg; SBP LS mean change from baseline (SE), MMRM (2 mg, Week 8): −19.8 (1.67) mm Hg; SBP LS mean difference (SE) vs placebo (2 mg, Week 8): −3.2 (2.23) mmHg; LS Mean Change from Baseline (SE) in SBP (2 mg, Wk 2): −8.8 (1.65) mm Hg; LS Mean Change from Baseline (SE) in SBP (2 mg, Wk 4): −13.6 (1.65) mm Hg; LS Mean Change from Baseline (SE) in SBP (2 mg, Wk 6): −15.7 (1.93) mm Hg; Model-based LS mean change from baseline (LSMEANS) (Female Hispanic/Latino, mITT, 0.5 mg, Week 2): −6.2; Model-based LS mean change from baseline (LSMEANS) (Female Hispanic/Latino, mITT, 0.5 mg, Week 4): −13.4; Comp w/ Placebo, Diff (95% CI) [6]: −4.9 (−16.80, 6.97) 0.412; Model-based LS mean change from baseline (LSMEANS) [6]: −11.3; Comp w/ Placebo, Diff (95% CI) [7]: 3.0 (−7.45, 13.46) 0.567; Model-based LS mean change from baseline (LSMEANS) [7]: −16.1; Model-based LS mean change from baseline (LSMEANS) (Hispanic or Latino, ITT, 0.5 mg, Week 2): −6.9; Model-based LS mean change from baseline (LSMEANS) (Hispanic or Latino, ITT, 0.5 mg, Week 4): −13.0; Comp w/ Placebo, Diff (95% CI) [8]: −4.1 (−10.84, 2.69) 0.235; Model-based LS mean change from baseline (LSMEANS) [8]: −13.3; Comp w/ Placebo, Diff (95% CI) [9]: −1.1 (−4.54, 6.66) 0.709; Model-based LS mean change from baseline (LSMEANS) [9]: −17.1; Model-based LS mean change from baseline (LSMEANS) (Hispanic or Latino, ITT, 1 mg, Week 2): −7.3; Model-based LS mean change from baseline (LSMEANS) (Hispanic or Latino, ITT, 1 mg, Week 4): −8.1; Comp w/ Placebo, Diff (95% CI) [10]: −1.4 (−8.71, 5.92); Model-based LS mean change from baseline (LSMEANS) [10]: −10.6; Comp w/ Placebo, Diff (95% CI) [11]: 4.0 (−2.00, 10.06); Model-based LS mean change from baseline (LSMEANS) [11]: −14.1; Model-based LS mean change from baseline (LSMEANS) (Hispanic or Latino, ITT, 2 mg, Week 2): −5.0; Model-based LS mean change from baseline (LSMEANS) (Hispanic or Latino, ITT, 2 mg, Week 4): −10.1; Comp w/ Placebo, Diff (95% CI) [12]: −2.5 (−9.31, 4.24); Model-based LS mean change from baseline (LSMEANS) [12]: −11.8; Comp w/ Placebo, Diff (95% CI) [13]: 1.9 (−3.69, 7.44); Model-based LS mean change from baseline (LSMEANS) [13]: −16.3; Model-Based Least-Square Mean Change from Baseline (SBP) (Placebo (N = 8), Week 2, mITT Population for Compliance for Black Patients): −7.7; Model-Based Least-Square Mean Change from Baseline (SBP) (Placebo (N = 8), Week 4, mITT Population for Compliance for Black Patients): −18.3; Model-Based Least-Square Mean Change from Baseline (SBP) (Placebo (N = 8), Week 6, mITT Population for Compliance for Black Patients): −20.6; Model-Based Least-Square Mean Change from Baseline (SBP) (Placebo (N = 8), Week 8, mITT Population for Compliance for Black Patients): −27.6; Comp w/ Placebo at Week 6, Diff (95% CI) [14]: −10.3 (−24.04, 3.43); Comp w/ Placebo at Week 8, Diff (95% CI) [14]: −13.4 (−25.04, −1.69)
